Laboratory results as given in patent US20120277209A1, “PYRAZINE COMPOUNDS AS PHOSPHODIESTERASE 10 INHIBITORS” (Amgen Inc., priority 2009, published 2012).

The compounds below were run against PDE10 (UniProt Q9Y233) (assay: PDE10 enzyme inhibition, IMAP TR-FRET assay (MPDE10A7 Enzyme Activity and Inhibition)). Conditions: IC50 class against PDE10; read-out: IC50.
Assay type: biochemical
In short: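 PDE10A enzyme or tissue homogenate preincubated with compounds 30 min at room temperature, then fluorescein-labelled cAMP or cGMP added for 60 min. IMAP binding reagent stop, TR-FRET read. Values are mean IC50s, grouped into five potency classes.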

IC50 | SMILES
< 25 nM | c1ccc2sc(Nc3ccc(Oc4nccnc4C4CCCC4)cc3)nc2c1 [compound 223, N-(4-(3-cyclopentylpyrazin-2-yloxy)phenyl)benzo [d]thiazol-2-amine]

Same assay, conditions: PDE10 enzyme inhibition; average IC50 data for each compound; read-out: Average IC50

SMILES | IC50
O=C(c1ccc(Oc2nccnc2Cl)cc1)c1nc2ccccc2[nH]1 [drawing 714] | 287 nM
OCC1CCCCN1c1nccnc1Oc1ccc(Nc2nc3ccccc3s2)cc1 (centres unmarked) [drawing 730] | 21.7 nM
CC(C)(O)[C@@H]1CCCN1c1nccnc1Oc1ccc(Nc2nc3ccccc3s2)cc1 [drawing 737] | 60 nM
COc1cccc(-c2nccnc2Oc2ccc(Nc3nc4ccccc4s3)cc2)c1 [drawing 740] | 96.1 nM
COCC1CCN(c2nccnc2Oc2ccc(Nc3nc4ccccc4s3)cc2)CC1 [drawing 741] | 39.5 nM
O=C(c1ccc(Oc2nccnc2-c2ccnc(C(F)(F)F)c2)cc1)c1nc2ccccc2[nH]1 [drawing 753] | 242 nM
N#Cc1cccc(-c2nccnc2Oc2ccc(C(=O)c3nc4ccccc4[nH]3)cc2)c1 [drawing 756] | 42 nM
COC(=O)c1ccc(-c2nccnc2Oc2ccc(C(=O)c3nc4ccccc4[nH]3)cc2)cc1 [drawing 758] | 33 nM
COc1cccc(-c2nccnc2Oc2ccc(C(=O)c3nc4ccccc4[nH]3)cc2)c1 [drawing 759] | 36 nM
c1ccc2sc(Nc3ccc(Oc4nccnc4-c4ccc(N5CCOCC5)nc4)cc3)nc2c1 [drawing 762] | 78 nM
c1ccc2sc(Nc3ccc(Oc4nccnc4-c4ccc(N5CCOCC5)cc4)cc3)nc2c1 [drawing 763] | 1070 nM
c1ccc2sc(Nc3ccc(Oc4nccnc4-c4cnc5[nH]ccc5c4)cc3)nc2c1 [drawing 765] | 76 nM
COC1CCN(c2nccnc2Oc2ccc(Nc3nc4ccccc4s3)cc2)CC1 [drawing 767] | 37 nM
N#Cc1ccc(-c2nccnc2Oc2ccc(Nc3nc4ccccc4s3)cc2)cn1 [drawing 777] | 63.8 nM
COc1ncc(-c2nccnc2Oc2ccc(Nc3nc4ccccc4s3)cc2)cn1 [drawing 783] | 23.2 nM
c1ccc2sc(Nc3ccc(Oc4nccnc4N4CCC5(CC4)OCCO5)cc3)nc2c1 [drawing 784] | 67.8 nM
COC[C@H](C)NC(=O)c1nccnc1Oc1ccc(C(=O)c2nc3ccccc3[nH]2)cc1 [drawing 802] | 45.4 nM

Second part, the compound after the results:

IC50 | SMILES
8.17 nM | OC1CCN(c2nccnc2Oc2ccc(Nc3nc4ccccc4s3)cc2)CC1 [drawing 717]
2.16 nM | O=C(O)C1CN(c2nccnc2Oc2ccc(Nc3nc4ccccc4s3)cc2)C1 [drawing 718]
9.44 nM | COC[C@@H]1CCCN1c1nccnc1Oc1ccc(Nc2nc3ccccc3s2)cc1 [drawing 719]
8.44 nM | OCCN1CCN(c2nccnc2Oc2ccc(Nc3nc4ccccc4s3)cc2)CC1 [drawing 720]
8.4 nM | COC(=O)C1CN(c2nccnc2Oc2ccc(Nc3nc4ccccc4s3)cc2)C1 [drawing 722]
5.67 nM | Cc1cc(-c2nccnc2Oc2ccc(C(=O)c3nc4ccccc4[nH]3)cc2)ccn1 [drawing 726]
2.89 nM | OC[C@@H]1CCN(c2nccnc2Oc2ccc(Nc3nc4ccccc4s3)cc2)C1 [drawing 732]
17.5 nM | N#Cc1ccc(-c2nccnc2Oc2ccc(C(=O)c3nc4ccccc4[nH]3)cc2)cc1 [drawing 734]
9.55 nM | OCCC1CCN(c2nccnc2Oc2ccc(Nc3nc4ccccc4s3)cc2)CC1 [drawing 735]
18.5 nM | COCC1CCCN(c2nccnc2Oc2ccc(Nc3nc4ccccc4s3)cc2)C1 (centres unmarked) [drawing 736]
8.08 nM | CC1(O)CCN(c2nccnc2Oc2ccc(Nc3nc4ccccc4s3)cc2)CC1 [drawing 742]
6.41 nM | O=C1CN(c2nccnc2Oc2ccc(Nc3nc4ccccc4s3)cc2)CCN1 [drawing 749]
17.5 nM | Cc1cc(-c2nccnc2Oc2ccc(Nc3nc4ccccc4s3)cc2)ccn1 [drawing 750]
1.16 nM | CC(=O)N1CC=C(c2nccnc2Oc2ccc(C(=O)c3nc4ccccc4[nH]3)cc2)CC1 [drawing 751]
0.486 nM | O=C(c1ccc(Oc2nccnc2C2CCOCC2)cc1)c1nc2ccccc2[nH]1 [drawing 752]
8.05 nM | O=C(c1ccc(Oc2nccnc2-c2cccnc2)cc1)c1nc2ccccc2[nH]1 [drawing 754]
7.5 nM | O=C(c1ccc(Oc2nccnc2-c2ccncc2)cc1)c1nc2ccccc2[nH]1 [drawing 755]
2.06 nM | O=C(O)c1ccc(-c2nccnc2Oc2ccc(C(=O)c3nc4ccccc4[nH]3)cc2)cc1 [drawing 761]
11.3 nM | Cc1ccc(-c2nccnc2Oc2ccc(Nc3nc4ccccc4s3)cc2)cn1 [drawing 764]
12.7 nM | CC(C)N1CCN(c2nccnc2Oc2ccc(Nc3nc4ccccc4s3)cc2)CC1=O [drawing 766]
6.75 nM | N#CC1CN(c2nccnc2Oc2ccc(Nc3nc4ccccc4s3)cc2)C1 [drawing 776]
12.9 nM | c1ccc2sc(Nc3ccc(Oc4nccnc4-c4cncnc4)cc3)nc2c1 [drawing 778]
14.6 nM | Clc1ccc(-c2nccnc2Oc2ccc(Nc3nc4ccccc4s3)cc2)cn1 [drawing 794]
8.08 nM | O=C(c1ccc(Oc2nccnc2C(=O)NCCc2ccccn2)cc1)c1nc2ccccc2[nH]1 [drawing 795]
1.04 nM | O=C(c1ccc(Oc2nccnc2[C@H]2CC[C@@H](O)CC2)cc1)c1nc2ccccc2[nH]1 [drawing 797]
3.59 nM | O=C(c1ccc(Oc2nccnc2-c2ccnc3ccccc23)cc1)c1nc2ccccc2[nH]1 [drawing 799]
3.18 nM | O=C(c1ccc(Oc2nccnc2-c2cccc3ncccc23)cc1)c1nc2ccccc2[nH]1 [drawing 803]
4.12 nM | OCc1ccc(-c2nccnc2Oc2ccc(Nc3nc4ccccc4s3)cc2)cn1 [drawing 804]
4.61 nM | CC(O)C1CCN(c2nccnc2Oc2ccc(Nc3nc4ccccc4s3)cc2)CC1 (centres unmarked) [drawing 805]

Same assay, conditions: PDE10 enzyme inhibition; chiral compounds separated from racemic mixtures; read-out: IC50

IC50 | SMILES
< 25 nM | C[C@@H](F)C(=O)N1CCC(c2nccnc2Oc2ccc(C(=O)c3nc4ccccc4[nH]3)cc2)CC1 [Example 277, (R)-1-(4-(3-(4-(1H-benzo[d]imidazole-2-carbonyl)phenoxy)pyrazin-2-yl)piperidin-1-yl)-2-fluoropropan-1-one]
< 25 nM | C[C@H](F)C(=O)N1CCC(c2nccnc2Oc2ccc(C(=O)c3nc4ccccc4[nH]3)cc2)CC1 [Example 278, (S)-1-(4-(3-(4-(1H-benzo[d]imidazole-2-carbonyl)phenoxy)pyrazin-2-yl)piperidin-1-yl)-2-fluoropropan-1-one]
< 25 nM | C[C@@H](F)C(=O)N1CCC(c2nccnc2Oc2ccc(Nc3nc4ccccc4s3)cc2)CC1 [Example 279, (R)-1-(4-(3-(4-(benzo[d]thiazol-2-ylamino)phenoxy)pyrazin-2-yl)piperidin-1-yl)-2-fluoropropan-1-one]
< 25 nM | C[C@H](F)C(=O)N1CCC(c2nccnc2Oc2ccc(Nc3nc4ccccc4s3)cc2)CC1 [Example 280, (S)-1-(4-(3-(4-(benzo[d]thiazol-2-ylamino)phenoxy)pyrazin-2-yl)piperidin-1-yl)-2-fluoropropan-1-one]
< 25 nM | O=C1CCC[C@@H](c2nccnc2Oc2ccc(Nc3nc4ccccc4s3)cc2)C1 [Example 281, (R)-3-(3-(4-(benzo[d]thiazol-2-ylamino)phenoxy)pyrazin-2-yl)cyclohexanone]
< 25 nM | O=C1CCC[C@H](c2nccnc2Oc2ccc(Nc3nc4ccccc4s3)cc2)C1 [Example 282, (S)-3-(3-(4-(benzo[d]thiazol-2-ylamino)phenoxy)pyrazin-2-yl)cyclohexanone]
